Results reported in patent US20150119363A1, “METHODS OF TREATING BACTERIAL INFECTIONS” (Rampex Pharmaceuticals, Inc., priority 2012, published 2015).

Tests used:
Assay in all cases: Dose titration biapenem potentiation assay (MPC1)
Settings in all cases: biapenem 1 μg/mL
KP1004 KPC-2 = assay type: cell-based, Klebsiella pneumoniae
Protocol: (§1) The potency and spectrum of β-lactamase inhibitors is also determined by assessing their biapenem potentiation activity in a dose titration potentiation assay using strains expressing serine carbapemenases (such as KPC). The potentiation effect is observed as the ability of BLI compounds to inhibit growth in the presence of sub-inhibitory concentration of biapenem. […] Biapenem is present in the test medium at 1 μg/mL. Compounds tested at the highest concentration of 40 μg/mL. […] Table 5 summarizes BLI potency of biapenem potentiation (MPC1). Biapenem MIC for each strain is also shown.

KP1008 KPC-2 = assay type: cell-based, Klebsiella pneumoniae
Protocol: as §1

EC1007 KPC-3 = assay type: cell-based, Escherichia coli
Protocol: as §1

ECL1004 NMC-A = assay type: cell-based, Enterobacter cloacae
Protocol: as §1

SMILES	BPM MPC1 KP1004 KPC-2 (KP1004 KPC-2)	BPM MPC1 KP1008 KPC-2 (KP1008 KPC-2)	BPM MPC1 EC1007 KPC-3 (EC1007 KPC-3)	BPM MPC1 ECL1004 NMC-A (ECL1004 NMC-A)
N[C@H](C(=O)N[C@H]1CC[C@@H](CC(=O)O)OB1O)c1ccccc1 [Compound 33, 2-((3R,6S)-3-((S)-2-amino-2-phenylacetamido)-2-hydroxy-1,2-oxaborinan-6-yl)acetic acid]	X (X = MPC1 of less than 1 μg/mL.)	X (X = MPC1 of less than 1 μg/mL.)	X (X = MPC1 of less than 1 μg/mL.)	X (X = MPC1 of less than 1 μg/mL.)
NCCC(=O)N[C@H]1CC[C@@H](CC(=O)O)OB1O [Compound 34, 2-((3R,6S)-3-(3-aminopropanamido)-2-hydroxy-1,2-oxaborinan-6-yl)acetic acid]	X (X = MPC1 of less than 1 μg/mL.)	X (X = MPC1 of less than 1 μg/mL.)	X (X = MPC1 of less than 1 μg/mL.)	Y (Y = MPC1 of 1 μg/mL to 5 μg/mL.)
N[C@@H](CCC(=O)N[C@H]1CC[C@@H](CC(=O)O)OB1O)C(=O)O [Compound 35, (S)-2-amino-5-((3R,6S)-6-(carboxymethyl)-2-hydroxy-1,2-oxaborinan-3-ylamino)-5-oxopentanoic acid]	X (X = MPC1 of less than 1 μg/mL.)	X (X = MPC1 of less than 1 μg/mL.)	X (X = MPC1 of less than 1 μg/mL.)	Y (Y = MPC1 of 1 μg/mL to 5 μg/mL.)
CC(C)(O/N=C(\C(=O)N[C@H]1CC[C@@H](CC(=O)O)OB1O)c1csc(N)n1)C(=O)O [Compound 36, 2-((Z)-1-(2-aminothiazol-4-yl)-2-((3R,6S)-6-(carboxymethyl)-2-hydroxy-1,2-oxaborinan-3-ylamino)-2-oxoethylideneaminooxy)-2-methylpropanoic acid]	Z (Z = MPC1 of greater than 5 μg/mL.)	X (X = MPC1 of less than 1 μg/mL.)	Y (Y = MPC1 of 1 μg/mL to 5 μg/mL.)	X (X = MPC1 of less than 1 μg/mL.)
O=C(O)C[C@@H]1CC[C@H](NC(=O)c2ccccc2)B(O)O1 [Compound 37, 2-((3R,6S)-3-benzamido-2-hydroxy-1,2-oxaborinan-6-yl)acetic acid]	X (X = MPC1 of less than 1 μg/mL.)	X (X = MPC1 of less than 1 μg/mL.)	X (X = MPC1 of less than 1 μg/mL.)	X (X = MPC1 of less than 1 μg/mL.)
O=C(O)C[C@@H]1CC[C@H](NC(=O)CCc2ccccc2)B(O)O1 [Compound 38, 2-((3R,6S)-2-hydroxy-3-(3-phenylpropanamido)-1,2-oxaborinan-6-yl)acetic acid]	X (X = MPC1 of less than 1 μg/mL.)	X (X = MPC1 of less than 1 μg/mL.)	X (X = MPC1 of less than 1 μg/mL.)	X (X = MPC1 of less than 1 μg/mL.)
Nc1nc(CC(=O)N[C@H]2CC[C@@H](CC(=O)O)OB2O)cs1 [Compound 39, 2-((3R,6S)-3-(2-(2-aminothiazol-4-yl)acetamido)-2-hydroxy-1,2-oxaborinan-6-yl)acetic acid]	X (X = MPC1 of less than 1 μg/mL.)	X (X = MPC1 of less than 1 μg/mL.)	X (X = MPC1 of less than 1 μg/mL.)	X (X = MPC1 of less than 1 μg/mL.)
CO/N=C(\C(=O)N[C@H]1CC[C@@H](CC(=O)O)OB1O)c1csc(N)n1 [Compound 40, 2-((3R,6S)-3-((Z)-2-(2-aminothiazol-4-yl)-2-(methoxyimino)acetamido)-2-hydroxy-1,2-oxaborinan-6-yl)acetic acid]	Y (Y = MPC1 of 1 μg/mL to 5 μg/mL.)	X (X = MPC1 of less than 1 μg/mL.)	Y (Y = MPC1 of 1 μg/mL to 5 μg/mL.)	Y (Y = MPC1 of 1 μg/mL to 5 μg/mL.)
CSCCC(N)C(=O)N[C@H]1CC[C@@H](CC(=O)O)OB1O (stereo partly drawn) [Compound 41, 2-((3R,6S)-3-(2-amino-4-(methylthio)butanamido)-2-hydroxy-1,2-oxaborinan-6-yl)acetic acid]	X (X = MPC1 of less than 1 μg/mL.)	X (X = MPC1 of less than 1 μg/mL.)	X (X = MPC1 of less than 1 μg/mL.)	Y (Y = MPC1 of 1 μg/mL to 5 μg/mL.)
NC(Cc1cccnc1)C(=O)N[C@H]1CC[C@@H](CC(=O)O)OB1O (stereo partly drawn) [Compound 42, 2-((3R,6S)-3-(2-amino-3-(pyridin-3-yl)propanamido)-2-hydroxy-1,2-oxaborinan-6-yl)acetic acid]	X (X = MPC1 of less than 1 μg/mL.)	X (X = MPC1 of less than 1 μg/mL.)	X (X = MPC1 of less than 1 μg/mL.)	Y (Y = MPC1 of 1 μg/mL to 5 μg/mL.)
O=C(O)C[C@@H]1CC[C@H](NC(=O)Cc2cccnc2)B(O)O1 [Compound 43, 2-((3R,6S)-2-hydroxy-3-(2-(pyridin-3-yl)acetamido)-1,2-oxaborinan-6-yl)acetic acid]	X (X = MPC1 of less than 1 μg/mL.)	X (X = MPC1 of less than 1 μg/mL.)	X (X = MPC1 of less than 1 μg/mL.)	X (X = MPC1 of less than 1 μg/mL.)
N[C@H](CCCN/C(=N/C(=O)OCc1ccccc1)NC(=O)OCc1ccccc1)C(=O)N[C@H]1CC[C@@H](CC(=O)O)OB1O [Compound 44, 2-((3R,6S)-3-((R)-2-amino-5-((Z)-2,3-bis(benzyloxycarbonyl)guanidino)pentanamido)-2-hydroxy-1,2-oxaborinan-6-yl)acetic acid]	X (X = MPC1 of less than 1 μg/mL.)	X (X = MPC1 of less than 1 μg/mL.)	X (X = MPC1 of less than 1 μg/mL.)	Y (Y = MPC1 of 1 μg/mL to 5 μg/mL.)
O=C(O)C[C@@H]1CC[C@H](NC(=O)[C@@H]2CCCCN2)B(O)O1 [Compound 45, 2-((3R,6S)-2-hydroxy-3-((S)-piperidine-2-carboxamido)-1,2-oxaborinan-6-yl)acetic acid]	Y (Y = MPC1 of 1 μg/mL to 5 μg/mL.)	X (X = MPC1 of less than 1 μg/mL.)	X (X = MPC1 of less than 1 μg/mL.)	Z (Z = MPC1 of greater than 5 μg/mL.)
O=C(O)C[C@@H]1CC[C@H](NC(=O)[C@H]2Cc3ccccc3CN2)B(O)O1 [Compound 46, 2-((3R,6S)-2-hydroxy-3-((R)-1,2,3,4-tetrahydroisoquinoline-3-carboxamido)-1,2-oxaborinan-6-yl)acetic acid]	X (X = MPC1 of less than 1 μg/mL.)	X (X = MPC1 of less than 1 μg/mL.)	X (X = MPC1 of less than 1 μg/mL.)	X (X = MPC1 of less than 1 μg/mL.)
N=C(N)NCCC[C@@H](N)C(=O)N[C@H]1CC[C@@H](CC(=O)O)OB1O [Compound 47]	Y (Y = MPC1 of 1 μg/mL to 5 μg/mL.)	X (X = MPC1 of less than 1 μg/mL.)	X (X = MPC1 of less than 1 μg/mL.)	Z (Z = MPC1 of greater than 5 μg/mL.)
NCCSCC(=O)N[C@H]1CC[C@@H](CC(=O)O)OB1O [Compound 48, 2-((3R,6S)-3-(2-(2-aminoethylthio)acetamido)-2-hydroxy-1,2-oxaborinan-6-yl)acetic acid]	X (X = MPC1 of less than 1 μg/mL.)	X (X = MPC1 of less than 1 μg/mL.)	X (X = MPC1 of less than 1 μg/mL.)	X (X = MPC1 of less than 1 μg/mL.)
O=C(O)C[C@@H]1CC[C@H](NC(=O)Cc2ccncc2)B(O)O1 [Compound 49, 2-((3R,6S)-2-hydroxy-3-(2-(pyridin-4-yl)acetamido)-1,2-oxaborinan-6-yl)acetic acid]	X (X = MPC1 of less than 1 μg/mL.)	X (X = MPC1 of less than 1 μg/mL.)	X (X = MPC1 of less than 1 μg/mL.)	X (X = MPC1 of less than 1 μg/mL.)
N[C@H]1CC[C@@H](CC(=O)N[C@H]2CC[C@@H](CC(=O)O)OB2O)CC1 [Compound 50, 2-((3R,6S)-3-(2-(4-aminocyclohexyl)acetamido)-2-hydroxy-1,2-oxaborinan-6-yl)acetic acid]	X (X = MPC1 of less than 1 μg/mL.)	X (X = MPC1 of less than 1 μg/mL.)	X (X = MPC1 of less than 1 μg/mL.)	X (X = MPC1 of less than 1 μg/mL.)
O=C(O)C[C@@H]1CC[C@H](NC(=O)c2cn(C3CC3)c3cc(N4CCNCC4)c(F)cc3c2=O)B(O)O1 [Compound 58, 2-((3R,6S)-3-(1-cyclopropyl-6-fluoro-4-oxo-7-(piperazin-1-yl)-1,4-dihydroquinoline-3-carboxamido)-2-hydroxy-1,2-oxaborinan-6-yl)acetic acid]	Z (Z = MPC1 of greater than 5 μg/mL.)	Z (Z = MPC1 of greater than 5 μg/mL.)		Z (Z = MPC1 of greater than 5 μg/mL.)
Nc1cc(CC(=O)N[C@H]2CC[C@@H](CC(=O)O)OB2O)ccn1 [Compound 61, 2-((3R,6S)-3-(2-(2-aminopyridin-4-yl)acetamido)-2-hydroxy-1,2-oxaborinan-6-yl)acetic acid]	X (X = MPC1 of less than 1 μg/mL.)	X (X = MPC1 of less than 1 μg/mL.)		X (X = MPC1 of less than 1 μg/mL.)
